Measurements: patent US20240024490A1, “BIFUNCTIONAL MOLECULES FOR SELECTIVE MODIFICATION OF TARGET SUBSTRATES” (The Broad Institute, Inc., priority 2021, published 2024)
Read-outs that look alike come from different tables or passages of the source. Values belong to the molecule of their own block, whether it stands above or below them.

What was measured:
[1] = cited from earlier work
Recombinant PKCζ = biological target: T1, Recombinant PKCζ (Homo sapiens, UniProt Q05513); details: cited from earlier work
T1 sequence (Q05513 1-592): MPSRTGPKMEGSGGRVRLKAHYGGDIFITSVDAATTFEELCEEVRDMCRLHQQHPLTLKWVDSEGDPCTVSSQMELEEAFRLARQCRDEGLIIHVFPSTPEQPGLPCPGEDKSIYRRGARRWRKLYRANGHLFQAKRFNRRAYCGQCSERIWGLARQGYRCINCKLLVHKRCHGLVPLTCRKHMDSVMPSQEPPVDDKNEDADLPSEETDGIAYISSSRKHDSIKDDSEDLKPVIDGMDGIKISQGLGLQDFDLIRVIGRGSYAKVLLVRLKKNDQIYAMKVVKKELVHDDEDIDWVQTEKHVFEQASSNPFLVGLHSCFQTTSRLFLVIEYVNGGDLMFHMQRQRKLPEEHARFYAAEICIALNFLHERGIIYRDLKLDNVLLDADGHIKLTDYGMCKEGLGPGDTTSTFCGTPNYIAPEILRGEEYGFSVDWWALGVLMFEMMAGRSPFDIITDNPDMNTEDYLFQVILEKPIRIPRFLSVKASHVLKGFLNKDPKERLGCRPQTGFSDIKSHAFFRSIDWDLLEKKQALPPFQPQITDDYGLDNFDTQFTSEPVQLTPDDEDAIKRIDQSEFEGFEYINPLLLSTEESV

PDK1 [2] = biological target: T2, PDK1 (Homo sapiens, UniProt O15530); details: cited from earlier work
T2 sequence (O15530 1-556): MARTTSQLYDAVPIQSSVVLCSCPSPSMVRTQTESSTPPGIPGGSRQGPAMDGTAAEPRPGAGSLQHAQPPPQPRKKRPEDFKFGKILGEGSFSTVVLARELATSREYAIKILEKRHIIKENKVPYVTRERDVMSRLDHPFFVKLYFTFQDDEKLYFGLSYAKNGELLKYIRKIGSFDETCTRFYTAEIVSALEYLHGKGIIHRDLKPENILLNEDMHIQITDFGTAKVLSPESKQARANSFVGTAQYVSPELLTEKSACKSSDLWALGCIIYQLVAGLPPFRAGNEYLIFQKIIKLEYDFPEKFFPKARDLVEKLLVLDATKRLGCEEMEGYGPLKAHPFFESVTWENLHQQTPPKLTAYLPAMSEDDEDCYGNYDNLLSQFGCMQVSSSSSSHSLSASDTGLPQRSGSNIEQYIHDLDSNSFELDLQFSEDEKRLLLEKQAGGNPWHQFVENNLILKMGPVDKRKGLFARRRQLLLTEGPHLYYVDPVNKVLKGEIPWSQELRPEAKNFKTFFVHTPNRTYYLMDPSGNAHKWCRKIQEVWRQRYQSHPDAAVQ

PDK1 [3] = biological target: T2, PDK1; details: ITC; cited from earlier work
AMPK = details: cited from earlier work
K562 cells = assay: K562 cell viability; assay type: cell-based
Z-138 cells [4] = assay: Z-138 cell viability; assay type: cell-based; details: FIGS. 67-71
Z-138 cells [5] = assay: Z-138 cell viability; assay type: cell-based
Source text: Since PKC phosphorylates membrane-associated BTK with the C1 domain buried in the lipid bilayer, [5] Applicants aimed to characterize PHICS-mediated BTK phosphorylation by PKC in vitro in the absence of lipid bilayer. […] PEG4 linker, and benzolactam (FIG. 73A). […] One of the modified residues (T410) is located close to the ATP binding pocket, whereas other sites (S310, 5323, and 5378) are on the loops of the SH2 domain in BTK. […] To explore the biological consequences of these neo-phosphorylations, Applicants adopted a genetic approach where the phosphorylated Ser/Thr residues were mutated to aspartic acid, a phosphomimetic, and alanine as a control. […] [8] […] The following studies will be focused on further optimization of the anti-cancer potency of BTK and BCR-ABL targeting PKC-based PHICS molecules as well as on the detailed investigation of their mechanism of action.
Applicants assessed the viability of Z-138 cells after introduction of small molecules at various concentrations, see FIGS. 67-71. […]
Applicants found a non-linear dependency on Z-138 cell viability as a function of linker length and composition.

HER2-Cter-FKBP = assay: Phosphorylation of HER2-Cter-FKBP by ABL in transfected HEK293 cells (pY1221 HER2-specific antibody); assay type: cell-based; details: 15 minutes of compound treatment, FIG. 74C
HER2-Cter-FKBP construct = assay: Phosphorylation of HER2-FKBP construct by ABL in HEK293 cells; assay type: cell-based; details: 15 minutes, pY1221 HER2-specific antibody
FGFR = assay: FGFR-FKBP phosphorylation by ABL and FGFR1/mTOR/G-CSF signaling; assay type: cell-based
Source text: Applicants expanded the scope of ABL targets by phosphorylating a receptor tyrosine kinase, FGFR by fusing an FKBP domain to the cytosolic portion of FGFR (FIG. 37).

ABL myristoyl domain = details: cited from earlier work
JNK 1 = JNK 1 (Homo sapiens, UniProt P45983); details: cited from earlier work
JNK 1, sequence (P45983 whole entry, species assumed): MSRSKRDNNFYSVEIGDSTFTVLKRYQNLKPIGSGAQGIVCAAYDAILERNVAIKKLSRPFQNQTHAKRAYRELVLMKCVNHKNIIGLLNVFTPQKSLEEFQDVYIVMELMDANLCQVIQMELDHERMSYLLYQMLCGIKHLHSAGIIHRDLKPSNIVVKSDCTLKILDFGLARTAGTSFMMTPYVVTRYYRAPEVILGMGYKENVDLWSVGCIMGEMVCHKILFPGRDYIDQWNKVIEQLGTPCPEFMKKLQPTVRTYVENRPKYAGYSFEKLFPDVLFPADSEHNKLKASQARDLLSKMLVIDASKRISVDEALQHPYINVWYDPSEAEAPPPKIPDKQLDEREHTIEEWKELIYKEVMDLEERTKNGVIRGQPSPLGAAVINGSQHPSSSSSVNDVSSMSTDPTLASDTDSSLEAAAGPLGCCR

JNK 2 = JNK 2 (Homo sapiens, UniProt P45984); details: cited from earlier work
JNK 2, sequence (P45984 whole entry, species assumed): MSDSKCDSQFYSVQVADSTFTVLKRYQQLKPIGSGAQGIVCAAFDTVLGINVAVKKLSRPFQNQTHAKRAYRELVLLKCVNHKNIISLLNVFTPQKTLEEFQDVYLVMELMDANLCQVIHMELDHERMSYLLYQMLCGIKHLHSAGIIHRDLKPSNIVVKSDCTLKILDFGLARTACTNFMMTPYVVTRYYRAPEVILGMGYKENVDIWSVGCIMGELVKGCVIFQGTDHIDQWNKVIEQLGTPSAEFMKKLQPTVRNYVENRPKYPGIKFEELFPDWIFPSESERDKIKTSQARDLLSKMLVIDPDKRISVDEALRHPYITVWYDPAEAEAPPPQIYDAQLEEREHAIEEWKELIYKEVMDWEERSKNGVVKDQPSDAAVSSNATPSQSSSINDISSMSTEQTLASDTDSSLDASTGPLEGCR

Aurora A = biological target: T3, Aurora A (Homo sapiens, UniProt O14965); details: cited from earlier work; for Ki: read-out: Calculated Ki
T3 sequence (O14965 1-403): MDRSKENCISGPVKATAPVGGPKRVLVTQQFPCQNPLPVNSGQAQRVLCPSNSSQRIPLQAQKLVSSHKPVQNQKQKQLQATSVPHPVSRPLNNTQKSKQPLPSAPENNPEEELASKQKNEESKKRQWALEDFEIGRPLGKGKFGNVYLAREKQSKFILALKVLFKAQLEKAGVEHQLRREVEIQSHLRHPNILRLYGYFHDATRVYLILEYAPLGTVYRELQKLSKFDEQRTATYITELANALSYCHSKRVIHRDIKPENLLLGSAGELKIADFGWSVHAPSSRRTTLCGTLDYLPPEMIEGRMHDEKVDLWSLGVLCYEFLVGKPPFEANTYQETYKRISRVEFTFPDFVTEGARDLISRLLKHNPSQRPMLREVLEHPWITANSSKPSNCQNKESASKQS

HSP90 = details: cell free assay; cited from earlier work
[6] = biological target: β2 subunit-containing AMPK (Homo sapiens, UniProt O43741+Q13131); details: cited from earlier work
β2 subunit-containing AMPK, sequence (O43741 whole entry): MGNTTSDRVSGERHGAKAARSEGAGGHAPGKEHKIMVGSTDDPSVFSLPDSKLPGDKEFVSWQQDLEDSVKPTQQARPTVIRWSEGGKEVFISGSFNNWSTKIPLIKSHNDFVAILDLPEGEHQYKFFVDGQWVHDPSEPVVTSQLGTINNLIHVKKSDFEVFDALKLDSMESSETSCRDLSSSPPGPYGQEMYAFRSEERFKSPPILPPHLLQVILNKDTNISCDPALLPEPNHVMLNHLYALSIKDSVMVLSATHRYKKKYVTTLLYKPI
β2 subunit-containing AMPK, sequence (Q13131 whole entry): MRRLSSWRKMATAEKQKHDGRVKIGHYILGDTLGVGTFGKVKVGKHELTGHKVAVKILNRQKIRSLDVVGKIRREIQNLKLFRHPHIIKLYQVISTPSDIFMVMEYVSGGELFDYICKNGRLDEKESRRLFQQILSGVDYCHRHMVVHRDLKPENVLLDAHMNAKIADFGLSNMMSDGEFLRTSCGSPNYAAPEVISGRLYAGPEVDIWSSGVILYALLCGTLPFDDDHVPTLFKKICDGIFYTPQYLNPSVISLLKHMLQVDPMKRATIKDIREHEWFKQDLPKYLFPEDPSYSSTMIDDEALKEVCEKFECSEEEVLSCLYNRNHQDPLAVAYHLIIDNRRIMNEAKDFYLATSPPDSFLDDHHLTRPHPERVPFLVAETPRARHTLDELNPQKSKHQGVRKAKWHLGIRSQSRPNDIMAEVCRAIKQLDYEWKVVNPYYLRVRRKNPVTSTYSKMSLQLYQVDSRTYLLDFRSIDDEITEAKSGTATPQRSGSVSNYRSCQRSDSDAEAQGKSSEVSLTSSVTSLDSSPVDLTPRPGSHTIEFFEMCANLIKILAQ
β2 subunit-containing AMPK, sequence (P54619 whole entry partner): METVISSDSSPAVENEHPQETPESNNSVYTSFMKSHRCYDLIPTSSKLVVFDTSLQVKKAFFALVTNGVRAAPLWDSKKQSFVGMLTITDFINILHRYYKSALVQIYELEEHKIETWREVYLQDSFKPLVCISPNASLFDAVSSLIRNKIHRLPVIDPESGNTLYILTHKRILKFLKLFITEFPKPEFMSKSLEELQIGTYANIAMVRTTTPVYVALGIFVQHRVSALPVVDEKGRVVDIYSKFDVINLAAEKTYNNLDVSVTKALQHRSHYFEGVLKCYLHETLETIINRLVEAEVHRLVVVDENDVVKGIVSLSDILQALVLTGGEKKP

[7] = biological target: β1 subunit-containing AMPK (Homo sapiens, UniProt Q13131+Q9Y478); details: cited from earlier work
β1 subunit-containing AMPK, sequence (Q9Y478 whole entry): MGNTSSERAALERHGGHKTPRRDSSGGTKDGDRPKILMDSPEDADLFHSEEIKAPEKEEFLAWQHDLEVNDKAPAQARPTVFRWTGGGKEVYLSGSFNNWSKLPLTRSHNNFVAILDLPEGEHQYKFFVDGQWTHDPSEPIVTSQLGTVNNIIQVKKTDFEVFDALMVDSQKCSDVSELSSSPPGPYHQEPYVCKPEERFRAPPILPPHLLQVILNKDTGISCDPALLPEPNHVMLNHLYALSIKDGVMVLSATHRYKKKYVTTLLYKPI
β1 subunit-containing AMPK, sequence (Q13131 whole entry): as the sequence (Q13131 whole entry) above
β1 subunit-containing AMPK, sequence (P54619 whole entry partner): as the sequence (P54619 whole entry partner) above

Molecule: O=C(NOCC(O)CO)c1ccc(F)c(F)c1Nc1ccc(I)cc1F (racemic) [Compound 33]
Sol (pH 6.5) [1]: 147 μg/mL

Molecule: CC(C)(C)C1=NN(c2ccc(Br)cc2)C(c2ccc(O)cc2)C1 (stereo not shown) [1c]
cell-free assay, % inhibition at 62.5 μM (Recombinant PKCζ): 93.2% | IC50 (Recombinant PKCζ; read-out: cell-free assay, IC50 ± SD): 11.4 ± 1.25 µM

Molecule: CC(C)(C)C1=NN(c2ccc(C(F)(F)F)cc2)C(c2ccc(O)cc2)C1 (stereo not shown) [1d]
cell-free assay, % inhibition at 62.5 μM (Recombinant PKCζ): 94.2%

Molecule: CC(C)c1ccc(N2N=C(C(C)(C)C)CC2c2ccc(O)cc2)cc1 (stereo not shown) [1f]
cell-free assay, % inhibition at 62.5 μM (Recombinant PKCζ): 54.9%

Molecule: CC(C)(C)C1=NN(c2ccc(C(=O)O)cc2)C(c2ccc(O)cc2)C1 (stereo not shown) [1g]
cell-free assay, % inhibition at 62.5 μM (Recombinant PKCζ): 47.9%

Molecule: CC(C)(C)C1=NN(c2cccc(F)c2)C(c2ccc(O)cc2)C1 (stereo not shown) [1i]
cell-free assay, % inhibition at 62.5 μM (Recombinant PKCζ): 98.1%

Molecule: CC(C)(C)C1=NN(c2ccccc2Cl)C(c2ccc(O)cc2)C1 (stereo not shown) [1l]
cell-free assay, % inhibition at 62.5 μM (Recombinant PKCζ): 57.1%

Molecule: CC(C)(C)C1=NN(c2ccccc2F)C(c2ccc(O)cc2)C1 (stereo not shown) [1m]
cell-free assay, % inhibition at 62.5 μM (Recombinant PKCζ): 57.6%

Molecule: CC(C)(C)C1=NN(c2ccc(Cl)cc2Cl)C(c2ccc(O)cc2)C1 (stereo not shown) [1n]
cell-free assay, % inhibition at 62.5 μM (Recombinant PKCζ): 71.0%

Molecule: CC(C)(C)C1=NN(c2ccc(F)cc2F)C(c2ccc(O)cc2)C1 (stereo not shown) [1o]
cell-free assay, % inhibition at 62.5 μM (Recombinant PKCζ): 68.0%

Molecule: Cc1ccc(N2N=C(C(C)(C)C)CC2c2ccc(O)cc2)c(C)c1 (stereo not shown) [1p]
cell-free assay, % inhibition at 62.5 μM (Recombinant PKCζ): 59.9%

Molecule: O=C(O)/C=C(/CCc1cccc(Cl)c1)c1ccccc1 [3Z]
AC50 (PDK1 [2]; read-out: AC50): 9.5 µM

Molecule: O=C(O)/C=C(\CCc1ccc(F)cc1)c1ccccc1 [4E]
AC50 (PDK1 [2]): n.e.

Molecule: O=C(O)/C=C(/CCc1ccc(Br)cc1)c1ccccc1 [5Z]
TΔS (PDK1 [3]): 3.20 kcal/mol | ΔG (PDK1 [3]): -6.32 kcal/mol | ΔH (PDK1 [3]): -3.07 kcal/mol | ΔH/ΔG (PDK1 [3]): 46.6% | AC50 (PDK1 [2]; read-out: AC50): 9.8 µM

Molecule: O=C(Nc1nnc(SCc2ccc([N+](=O)[O-])cc2)s1)c1ccccc1Cl [6E]
AC50 (PDK1 [2]): n.e.

Molecule: O=C(O)/C=C(/CCc1ccc(C(F)(F)F)cc1)c1ccccc1 [6Z]
TΔS (PDK1 [3]): 4.79 kcal/mol | ΔG (PDK1 [3]): -6.73 kcal/mol | ΔH (PDK1 [3]): -1.84 kcal/mol | ΔH/ΔG (PDK1 [3]): 26.5% | AC50 (PDK1 [2]; read-out: AC50): 7.1 µM

Molecule: Cc1ccc(CC/C(=C\C(=O)O)c2ccccc2)c(Cl)c1 [8E]
AC50 (PDK1 [2]): n.e.

Molecule: CCc1ccc(CC/C(=C\C(=O)O)c2ccccc2)cc1 [10E]
AC50 (PDK1 [2]): n.e.

Molecule: CCc1ccc(CC/C(=C/C(=O)O)c2ccccc2)cc1 [10Z]
AC50 (PDK1 [2]; read-out: AC50): > 50 µM

Molecule: O=C(O)/C=C(/CCc1ccc2ccccc2c1)c1ccccc1 [12Z]
TΔS (PDK1 [3]): 1.96 kcal/mol | ΔG (PDK1 [3]): -6.67 kcal/mol | ΔH (PDK1 [3]): -4.56 kcal/mol | ΔH/ΔG (PDK1 [3]): 68.3% | AC50 (PDK1 [2]; read-out: AC50): 6 µM

Molecule: O=C(O)/C=C(/CCc1c[nH]c2ccccc12)c1ccccc1 [13Z]
TΔS (PDK1 [3]): 2.60 kcal/mol | ΔG (PDK1 [3]): -6.73 kcal/mol | ΔH (PDK1 [3]): -4.09 kcal/mol | ΔH/ΔG (PDK1 [3]): 60.8% | AC50 (PDK1 [2]; read-out: AC50): 7.6 µM

Molecule: N#Cc1c(O)c2c(-c3ccc(-c4ccccc4O)cc3)csc2[nH]c1=O [A769662]
pEC50 (AMPK): 6.0

Molecule: O=C(NOCC(O)CO)c1ccc(F)c(F)c1Nc1ccc(I)cc1F (stereo not shown) [Compound 35]
Sol (pH 6.5) [1]: 255, μg/mL

EC50 (K562 cells; unit inferred): ≥ 10 µM | EC50 (K562 cells; unit inferred, listed as Cpdl): > 10 µM
Molecule: O=C1NC(=O)C(c2cn(-c3ccccc3)nc2-c2ccc(F)cc2)N1 (stereo not shown) [Cpd1]

Molecule: CCCN(Cc1ccc(-c2ccccc2-c2nn[nH]n2)cc1)c1nc2ccccc2s1 [Cpd2]
EC50 (K562 cells): ~1 µM

Molecule: CCCCN(Cc1ccc(-c2ccccc2-c2nn[nH]n2)cc1)c1nc(C)cc(C)n1 [Cpd3]
EC50 (K562 cells): ~0.31 µM

Molecule: C=CC(=O)N1CCC[C@@H](n2nc(-c3ccc(Oc4ccccc4)cc3)c3c(N)ncnc32)C1 [Ibrutinib]
effect on Z-138 cell viability (Z-138 cells [4]): did not have any significant effect | effect on Z-138 cell viability (Z-138 cells [5]): did not have any significant effect

Molecule: O=C(NOC[C@H](O)CO)c1ccc(F)c(F)c1Nc1ccc(I)cc1F [Mirdametinib]
Sol (pH 6.5) [1]: 190 μg/mL

Molecule: CC[C@H](C(=O)N1CCCC[C@H]1C(=O)O[C@@H](CCc1ccc(OC)c(OC)c1)c1cccc(OCC(=O)NCCOCCOCCOCCOCCC(=O)NC2=NN(c3ccc(Cl)c(Cl)c3)CC2)c1)c1cc(OC)c(OC)c(OC)c1 [VS1043]
phosphorylation of HER2-Cter-FKBP construct (HER2-Cter-FKBP): significant phosphorylation | phosphorylation of HER2-Cter-FKBP construct (HER2-Cter-FKBP construct): significant phosphorylation | FGFR phosphorylation / FGFR1/mTOR/G-CSF signaling (FGFR): activates FGFR1/mTOR/G-CSF signaling in a dose dependent manner

Molecule: CNCc1ccc(COc2ccc3c(c2)N(C)C(C(C)C)C(=O)NC(CO)C3)cc1 (stereo not shown) [benzolactam]
effect on Z-138 cell viability (Z-138 cells [4]): did not have any significant effect | effect on Z-138 cell viability (Z-138 cells [5]): did not have any significant effect

Molecule: CCCN(Cc1ccc(-c2ccccc2-c2nn[nH]n2)cc1)c1nc2ccccc2s1 [compound 2]
pIC50 (ABL myristoyl domain): 6.5

Molecule: CCOc1nc(C(=O)NCC2CCN(Cc3sc(-c4ccccc4)nc3C)CC2)cc(N)c1C#N [compound 6]
IC50 (JNK 1): < 0.0018 µM | IC50 (JNK 2): < 0.0026 µM

Molecule: CNc1ncc2c(n1)N(C1CCC(O)C1)C(=O)N(c1cc(NC(=O)c3ccc(CN4CCN(C)CC4)c(C(F)(F)F)c3)ccc1C)C2 (stereo not shown) [compound 9]
IC50 (JNK 1): 0.97 µM | IC50 (JNK 2): 1.3 µM

Molecule: O=C(O)c1cc(-c2cccc(F)c2)nc2ccccc12 [compound 26]
IC50 (Aurora A): 75.9 µM | Ki (Aurora A): 16.5 µM

Molecule: O=C(O)c1cc(-c2cccc(C(F)(F)F)c2)nc2ccccc12 [compound 34]
IC50 (Aurora A): 26.5 µM | Ki (Aurora A): 5.7 µM

Molecule: Alvespimycin
IC50 (HSP90): 0.062 µM

Molecule: MT47-100
pKi as an allosteric inhibitor [6]: 4.6 | pKi as an activator [7]: 5.4
